The values below are quoted from earlier work in US11773445B1, “Diagnostic methods” (GRIFFITH UNIVERSITY, priority 2015, dated 2023).

For this data set the following is noted: CFS patients; multiple Rituximab infusions.

For the substance “Rituximab: drug given as multiple infusions to CFS patients in a cited study; anti-CD20 intervention”, the patients responded is recorded as 15 of 25.
